Test results published in ChEMBL document CHEMBL1201862, “PubChem BioAssay data set” (2004).
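Interpolation was linear, between the two tested concentrations surrounding the appropriate level; five concentrations were tested over 48 hours in 96-well plates. GI50 = concentration required for 50% inhibition of growth.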 Activity calls are given as the source filed them. No stated cut-off is given here; in the data, active = GI50 up to about 1.1 µM and inactive = higher.

What was measured:
Assay in all cases: growth of human tumour cells (NCI), 48 h
[1] = system: COLO 205
[2] = system: OVCAR-5
[3] = system: ACHN
[4] = system: SNB-19
[5] = system: KM12
[6] = system: RXF 393
[7] = system: EKVX
[8] = system: SK-MEL-2
[9] = system: 786-0
[10] = system: OVCAR-4
[11] = system: M14
[12] = system: OVCAR-3
[13] = system: DU-145
[14] = system: NCI/ADR-RES
[15] = system: UACC-62
[16] = system: NCI-H460
[17] = system: PC-3
[18] = system: SW-620
[19] = system: HOP-92
[20] = system: HL-60

| SMILES | GI50 [1] | GI50 [2] | GI50 [3] | GI50 [4] | GI50 [5] | GI50 [6] | GI50 [7] | GI50 [8] | GI50 [9] | GI50 [10] | GI50 [11] | GI50 [12] | GI50 [13] | GI50 [14] | GI50 [15] | GI50 [16] | GI50 [17] | GI50 [18] | GI50 [19] | GI50 [20] |
| --- | --- | --- | --- | --- | --- | --- | --- | --- | --- | --- | --- | --- | --- | --- | --- | --- | --- | --- | --- | --- |
| CNc1nc2n(CCO)c(-c3ccccc3)c(-c3ccccc3)nc-2c(=O)n1 | > 50 µM (inactive) | > 50 µM (inactive) | > 50 µM (inactive) | > 50 µM (inactive) | > 50 µM (inactive) | > 50 µM (inactive) | > 50 µM (inactive) | > 50 µM (inactive) | > 50 µM (inactive) | > 50 µM (inactive) | > 50 µM (inactive) | 14.8 µM (inactive) | > 50 µM (inactive) | > 50 µM (inactive) | > 50 µM (inactive) | > 50 µM (inactive) | > 50 µM (inactive) | > 50 µM (inactive) | > 50 µM (inactive) |  |
| CCOC(=O)c1cc(=O)c2ccnc3c2n1CCS3 | > 100 µM (inactive) | > 100 µM (inactive) | > 100 µM (inactive) | 50.2 µM (inactive) | 40.9 µM (inactive) |  | > 100 µM (inactive) | > 100 µM (inactive) | > 100 µM (inactive) |  | > 100 µM (inactive) | 61.7 µM (inactive) | > 100 µM (inactive) | > 100 µM (inactive) | > 100 µM (inactive) | > 100 µM (inactive) | > 100 µM (inactive) | > 100 µM (inactive) | 66.4 µM (inactive) | > 100 µM (inactive) |
| COC(=O)C#CC1(O)C=CC(=O)C=C1 | 2.41 µM (inactive) | 1.42 µM (inactive) | 0.571 µM (active) | 4.63 µM (inactive) | 0.843 µM (active) | 1.58 µM (inactive) | 4.12 µM (inactive) | 2.36 µM (inactive) | 0.483 µM (active) | 3.13 µM (inactive) | 1.25 µM (inactive) | 0.367 µM (active) | 1.38 µM (inactive) | 0.525 µM (active) | 0.865 µM (active) | 2.71 µM (inactive) | 1.29 µM (inactive) | 0.299 µM (active) | 0.891 µM (active) |  |
| O=C(O)C1CCCCC1C(=O)Nn1cnnc1 (configuration not stated) | > 100 µM (inactive) | > 100 µM (inactive) | > 100 µM (inactive) | > 100 µM (inactive) | > 100 µM (inactive) | > 100 µM (inactive) | > 100 µM (inactive) | > 100 µM (inactive) | > 100 µM (inactive) | > 100 µM (inactive) | > 100 µM (inactive) | > 100 µM (inactive) | > 100 µM (inactive) | > 100 µM (inactive) | > 100 µM (inactive) |  | > 100 µM (inactive) | > 100 µM (inactive) | > 100 µM (inactive) |  |
| COC(=O)c1cc(/C=C2\Cc3cc4c(cc3C2=O)CCC4)cc2c1CCC2 | > 100 µM (inactive) | > 100 µM (inactive) | > 100 µM (inactive) | > 100 µM (inactive) | > 100 µM (inactive) |  | > 100 µM (inactive) | > 100 µM (inactive) | > 100 µM (inactive) | 41.3 µM (inactive) | > 100 µM (inactive) | > 100 µM (inactive) | > 100 µM (inactive) | > 100 µM (inactive) | > 100 µM (inactive) | > 100 µM (inactive) | > 100 µM (inactive) | > 100 µM (inactive) |  | > 100 µM (inactive) |
| N#C/C(=C\c1cc(Br)c(O)c(Br)c1)c1cccnc1 | 22.8 µM (inactive) | 41.6 µM (inactive) | 36.3 µM (inactive) | 39.1 µM (inactive) | 27.2 µM (inactive) | 41.3 µM (inactive) | 19.1 µM (inactive) | 19.3 µM (inactive) | 10.1 µM (inactive) | 33.3 µM (inactive) | 26.1 µM (inactive) | 21 µM (inactive) | > 100 µM (inactive) | 24 µM (inactive) | 43.8 µM (inactive) | 32.5 µM (inactive) | 22 µM (inactive) | 28.8 µM (inactive) |  | 27 µM (inactive) |
| CCOc1ccc(NC(=O)/C(Cc2nc3ccccc3nc2O)=N\O)cc1 | > 100 µM (inactive) | > 100 µM (inactive) | > 100 µM (inactive) | > 100 µM (inactive) | > 100 µM (inactive) | > 100 µM (inactive) | 75 µM (inactive) | > 100 µM (inactive) | > 100 µM (inactive) | > 100 µM (inactive) | > 100 µM (inactive) | > 100 µM (inactive) |  |  | > 100 µM (inactive) | > 100 µM (inactive) |  | > 100 µM (inactive) | 54.2 µM (inactive) | > 10 µM (inactive) |
| CC(=O)NC1C(OCc2ccccc2)OC(CO)C(O)C1OCC(=O)N[C@@H](C)C(=O)N[C@H](CCC(=O)NCCCCNc1c2ccccc2nc2cccc([N+](=O)[O-])c12)C(N)=O (some centres not stated) | 0.684 µM (active) | 3.56 µM (inactive) | 1.33 µM (inactive) | 4.53 µM (inactive) | 1.83 µM (inactive) | 1.53 µM (inactive) | 2.07 µM (inactive) | 2.51 µM (inactive) | 0.998 µM (active) | 0.957 µM (active) | 2.23 µM (inactive) | 3.5 µM (inactive) | 1.91 µM (inactive) | 16.7 µM (inactive) | 1.51 µM (inactive) | 0.48 µM (active) | 1.24 µM (inactive) | 0.618 µM (active) | 0.748 µM (active) |  |
